Measured values reported in patent US12358941B2, “Lipidic analogs of anti-cancer stem cell agent” (VIRGINIA COMMONWEALTH UNIVERSITY, priority 2019, dated 2025).
Values joined by “and” are separate entries in the source; they are usually repeats but may differ in a detail not shown here. Equal entries are not always repeated. “Also recorded” adds a separate entry of the source. Where two headings read alike, the source gives them in different places.

Experiments:
[1] = test system: HT-29 spheroids (CSCs); assay: Primary spheroids inhibition assay, HT-29; assay type: cell-based
Protocol: (§1) The inhibitory potential of lipid-modified compounds of Formula I against CSCs was tested using a primary spheroids inhibition assay in various cancer cell lines including HT-29, RKO, HCT-116, LS1034, HC-15, WiDr, SW480, COLO205, NCI-H508, SW1116, LS174T, KM12 etc. Cells were grown both under monolayer and spheroid conditions as described in earlier work [Patel, N. J., et al. ACS Chem. Biol. 2014, 9, 1826-1833]. For primary sphere assay, cells were plated in non-treated, low adhesion, 96 wells plate at the concentration of 100 cells/100 μL/well in stem cell media (SCM) that consisted of DMEM:F12:AA, supplemented with 1×B27, 20 ng/mL epidermal growth factor, and 10 ng/mL fibroblast growth factor. After 4 h of incubation, vehicle (control) or G2.2 and its lipid analogs at the desired concentrations were added to each well (at least in triplicates for each sample). On day five, numbers of spheres ranging from 50 to 150 micrometers in diameter were counted using phase contrast microscope and percent inhibition was calculated compared to control. For monolayer assay, approximately 2.5×10^3 cells/100 μL/well were plated in 96-well tissue culture treated plate. After overnight incubation at 37° C. vehicle (control) or G2.2 was added at the desired concentration and the cells were further incubated for 60-72 h. At the end of the incubation, 10 μL of 5 mg mL^−1 MTT solution ((3-(4,5-dimethylthiazol-2-yl)-2,5-diphenyltetrazolium bromide, Sigma) made in phosphate buffered saline (PBS) (Gibco) was added to each well and incubated for minimum of 2 to 3 h until crystals formation was observed. Following this, 150 μL of 4 mM HCl (Sigma) in isopropanol solution was added dropwise to each well and the mixture was triturated until the crystals dissolve completely. Finally, the plate was placed on the spectrophotometer reader and read at 590 nm and growth inhibition was calculated as percent of control.

[2] = test system: RKO colon spheroids; assay: Primary spheroids inhibition assay, RKO; assay type: cell-based; settings: FIG. 6
Protocol: The inhibitory potential of lipid-modified compounds of Formula I against CSCs was tested using a primary spheroids inhibition assay in various cancer cell lines including HT-29, RKO, HCT-116, LS1034, HC-15, WiDr, SW480, COLO205, NCI-H508, SW1116, LS174T, KM12 etc. Cells were grown both under monolayer and spheroid conditions as described in earlier work [Patel, N. J., et al. ACS Chem. Biol. 2014, 9, 1826-1833]. […] On day five, numbers of spheres ranging from 50 to 150 micrometers in diameter were counted using phase contrast microscope and percent inhibition was calculated compared to control. […] At the end of the incubation, 10 μL of 5 mg mL^−1 MTT solution ((3-(4,5-dimethylthiazol-2-yl)-2,5-diphenyltetrazolium bromide, Sigma) made in phosphate buffered saline (PBS) (Gibco) was added to each well and incubated for minimum of 2 to 3 h until crystals formation was observed. Following this, 150 μL of 4 mM HCl (Sigma) in isopropanol solution was added dropwise to each well and the mixture was triturated until the crystals dissolve completely. Finally, the plate was placed on the spectrophotometer reader and read at 590 nm and growth inhibition was calculated as percent of control.

[3] = test system: HT-29 cells (monolayer); assay: Monolayer MTT growth assay, HT-29; assay type: cell-based; settings: HT-29 monolayer growth
Protocol: as §1

[4] = test system: xenografts-derived cells (HT-29), 3° spheroids; assay: Ex vivo tertiary spheroid formation of xenograft-derived cells; assay type: cell-based; settings: cells from treated xenografts, a week after last dose
Source text: We also utilized our earlier observation that CSCs/progenitors are enhanced several-fold in spheroid culture and assessed the xenografts-derived cells for retention of tertiary spheroid growth inhibition profiles to distinguish between non self-renewing progenitors and self-renewing CSCs ex vivo.

[5] = Pharmacokinetics in rats, plasma concentration by fluorimetry; assay type: in vivo, Sprague-Dawley rats
Protocol: The animal protocol was approved by the Institutional Animal Care and Use Committee at VCU. Adult male Sprague-Dawley rats weighing 250-275 g were acclimatized for over 3 days with free access to standard rat diet and tap water. Animals were then placed on overnight fasting (i.e., without diet, but with free access to water) on a day before the PK studies. Each animal was anesthetized with an IP injection of urethane and an aliquot (0.1 mL) of blood was withdrawn as a prior-to-dosing or time 0 sample from the jugular vein with a use of 0.11 M sodium citrate (0.01 mL) as anti-coagulant. Rats (n=4 or 5) received G2.2 or IIb via IV injection or PO administration, while one animal received G2.2 via IP bolus injection. G2.2 and IIb were dissolved in sterile saline (0.1 mL IV and IP; 0.2 mLs PO). A series of blood aliquots (0.1 mL) were sampled from the jugular vein at different time points over 0 to 8 h. The blood samples were immediately centrifuged at 11,750 g for 3 min to yield the plasma samples, which were then stored at −70° C. At the conclusion of PK studies, all rats were euthanized by exsanguination under the surgical anesthesia.
The concentrations of G2.2 and lipid analogs in plasma were determined by the quantitative fluorimetry assay in which plasma samples were first diluted 2-fold (v/v) with 0.05 M PBS (pH 7.4), then an equal volume of methanol added and the mixture centrifuged at 11,750 g for 5 min. The supernatants were transferred to black 96 well-plates and the fluorescence at 528 nm (G2.2) or 460 nm (lipid analog) (λEX=340 nm) read using a microplate reader. Reference profiles, prepared for concentrations in the range of 0.5 and 50 μg/mL (R^2=0.98-0.99), were used to calculate plasma concentration at every time point.
The PK profile was analyzed using conventional analysis. The parameters deduced included peak plasma concentration (Cmax), the time required to reach Cmax (Tmax), the plasma concentration-time curve (AUC0-∞), the terminal half-life (t1/2), the apparent clearance (CL/F) and the apparent pseudo-steady state volume of distribution (Vpss/F). The absolute bioavailability (F) was deduced for G2.2, while relative bioavailability was deduced for lipid analogs.

[6] = test system: CSC-induced HT-29 xenografts; assay: CSC-induced HT-29 xenograft model; assay type: in vivo
Protocol: Briefly, the protocols were approved by the Animal Component of Research Protocol Committee at McGuire VA Medical Center, Richmond, VA Xenografts were generated by injecting 10^5 CD133 hi/CXCR4hi (Dual hi) fluorescence-activated cell sorter (FACS) isolated HT29 cells suspended in 50% reduced growth factor Matrigel (BD Bioscience; in 50 μL sterile PBS) into the right flank of 6-week-old, female NCr nude mice (Taconic Farms) subcutaneously.
Once the tumors reached 50 mm^3, mice were randomized to either of the three groups (vehicle, 200 mg/kg G2.2, or 100 mg/kg IIb) and dosed i.p three times a week for three weeks. Tumor measurements on each animal were made 3 times a week with Vernier calipers, and tumor volume was calculated using the formula: V=W^2 (L)/2, where V is the volume in mm^3, and W and L are the width and length in mm. […] The remainder of animals were monitored till they reached predefined humane end-points. Animals were sacrificed per Institutional Animal Care and Use Committee—approved methods of euthanasia.

[7] = test system: activated partial thromboplastin time (APTT), human plasma; assay: APTT clotting assay in human plasma; assay type: biochemical; settings: for Safety Index: APTT doubling concentration vs HT-29 CSC IC50; for Concentration required to double APTT: citrated human plasma
Protocol: Glycosaminoglycans, especially heparin/HS, are known for their ability to inhibit the coagulation system. Because G2.2 and its lipid analogs are mimetics of GAGs, it is important to study their effects on the coagulation system. We measured the concentration of lipid-modified G2.2 analogs required to double the activated partial thromboplastin time (APTT; Table 4). The experiments were performed as described in earlier work [Henry, B. L., et al. Blood Coag Fibrinol 2009, 20, 27-34]. Briefly, a standard one-stage recalcification assay in a BBL Fibrosystem fibrometer (Becton-Dickinson, Sparles, MD) was used to measure clotting times in human plasma. A 10 μL aqueous solution of the lipidic analog at a desired concentration was mixed with 90 μL of citrated human plasma and 100 μL of prewarmed APTT reagent. After incubation for 4 min at 37° C., clotting was initiated by adding 100 μL of prewarmed 25 mM CaCl2), and the time to clot was noted. The concentration of the analog required to double the clotting time was calculated from the clotting time versus concentration profile. In general, cholesterol modification of G2.2 increased its anticoagulation potency.

[8] = test system: normal colon tissue spheroids; assay: Patient-derived spheroid growth, normal colon tissue; assay type: cell-based, human; settings: 5 μM
[9] = test system: cancerous tissue-derived primary human spheroids; assay: Patient-derived spheroid growth, cancerous colon tissue; assay type: cell-based; settings: 5 μM
[10] = background statement; cited from earlier work
[11] = HT-29 CSCs, Table 4, read-out: IC50 (HT-29 CSCs)
[12] = HT-29 spheroid growth, read-out: Spheroid IC50

## CC(C)CCCC(C)C1CCC2C3CC=C4CC(OCCCCCOc5cc(-c6oc7cc(OS(=O)(=O)[O-])cc(OCCCOc8cc(OS(=O)(=O)[O-])cc9oc(-c%10ccc(OS(=O)(=O)[O-])c(OS(=O)(=O)[O-])c%10)c(OS(=O)(=O)[O-])c(=O)c89)c7c(=O)c6OS(=O)(=O)[O-])ccc5OS(=O)(=O)[O-])CCC4(C)C3CCC12C.[Na+].[Na+].[Na+].[Na+].[Na+].[Na+].[Na+] (centres unmarked) [IIb]
[1]; [11]
  IC50: 8.2 ± 1.5 µM
[1]; [12]
  IC50: 8.2 ± 1.5 µM
[2]
  inhibition of RKO colon spheroids: dose-dependent inhibition
[3]
  IC50: > 500 µM
[4]
  decrease in 3° spheroid formation vs vehicle controls: 2.6 fold
[5]; PO nominal 50 mg/kg, rats, 0-8 h
  peaks in the plasma concentration vs. time profile: At least 2
[6]; 100 mg/kg i.p., 3 times a week x 3 weeks, end of treatment
  decrease in tumor volume compared with vehicle controls: > 80%
[6]; 100 mg/kg i.p., nude mice
  gross toxicity (animal body weight): did not show any gross toxic effects; also recorded: no gross toxicity
[6]; 100 mg/kg i.p., vs vehicle
  CSC markers (DCLK1, LGR5) and self-renewal factor (BMI-1), western blot of xenografts: robust reduction; also recorded: reduction in CSC markers
[6]; 100 mg/kg, i.p.
  tumor volume compared to vehicle treated mice: significant reduction in tumor volume
[6]; IIb 100 mg/kg i.p.
  effect on tumor volume compared to G2.2 (200 mg/kg): > 2 fold
[6]; IIb treated mice
  CSC markers, flow cytometry analysis of mice xenografts: reduction in CSC markers
[6]; overall in vivo studies
  in vivo potency relative to G2.2: ~4 fold
[7]
  Safety Index: 6-fold
  Concentration required to double APTT: 48 µM
[8]
  effect on spheroid growth formation, normal tissue: without any effect
[9]
  inhibition of spheroid growth formation, cancerous tissue: significantly inhibited

## CC(C)CCCC(C)C1CCC2C3CC=C4CC(OCCCCCCCCOc5cc(-c6oc7cc(OS(=O)(=O)[O-])cc(OCCCOc8cc(OS(=O)(=O)[O-])cc9oc(-c%10ccc(OS(=O)(=O)[O-])c(OS(=O)(=O)[O-])c%10)c(OS(=O)(=O)[O-])c(=O)c89)c7c(=O)c6OS(=O)(=O)[O-])ccc5OS(=O)(=O)[O-])CCC4(C)C3CCC12C.[Na+].[Na+].[Na+].[Na+].[Na+].[Na+].[Na+] (centres unmarked) [IIc]
[1]; [11]
  IC50: 0.8 ± 0.2 µM
[1]; [12]
  IC50: 0.8 ± 0.2 µM
[3]
  Monolayer IC50: 1079 ± 15%
[5]; PO, rats
  absorption compared with G2.2: far greater than that for G2.2
[7]
  Safety Index: 63-fold
  Concentration required to double APTT: 50 µM

## O=c1c(OS(=O)(=O)O)c(-c2ccc(OS(=O)(=O)O)c(OS(=O)(=O)O)c2)oc2cc(OS(=O)(=O)O)cc(OCCCOc3cc(OS(=O)(=O)O)cc4oc(-c5ccc(OS(=O)(=O)O)c(OS(=O)(=O)O)c5)c(OS(=O)(=O)O)c(=O)c34)c12 [Compound G2.2]
[1]; [11]
  IC50: 29 ± 1 µM
[1]; [12]
  IC50: 29 ± 1 µM
[2]
  inhibition of RKO colon spheroids: dose-dependent inhibition
[3]
  IC50: > 500 µM
[5]; G2.2 IV bolus 50 mg/kg, rats
  distribution phase: about 1.5 hours
[5]; IP 200 mg/kg, rat
  AUC0-∞ (area under the plasma concentration v/s time curve): 6398 µg·h/mL
  Cmax: 925 µM
  Cmax (maximum plasma concentration): ~1350 µg/mL
  t1/2 (terminal half-life): 3 h
[5]; IP 200 mg/kg, rat, 200 mg/kg
  F (absolute bioavailability): 30%
[5]; IV bolus 50 mg/kg, rats
  terminal half-life: 4.4 h
[5]; PO 200 mg/kg, rats
  AUC0-∞ (area under the plasma concentration v/s time curve): 584 µg·h/mL
  Cmax: 55.6 µM
  t1/2 (terminal half-life): 4.6 h
[5]; PO 200 mg/kg, rats, 200 mg/kg
  Cmax (maximum plasma concentration): 81.2 µg/mL and 81 µg/mL
  F (absolute bioavailability): 3%
[10]
  half-life: 4 h
  oral bioavailability: < 1%
[7]
  Safety Index: 22-fold
  Concentration required to double APTT: 640 µM

## Enoxaparin [reference compound]
[7]
  Concentration required to double APTT: 2.5 µM
